Experimental data taken from US6723750B2, “Photodynamic therapy for pre-melanomas” (Allergan, Inc., priority 2002, dated 2004).

System: pre-melanoma
Assay: Photodynamic therapy of pre-melanoma around the excision site after surgical melanoma removal (patient case examples)
Type: in vivo, human
Description: The melanoma is surgically removed and the patient is treated for pre-melanoma using photodynamic therapy. The area around the point of excision of the melanoma is contacted with a composition which includes aminolevulinic acid methyl ester at about a 10% (w/w) and a penetrating agent, DMSO, at a concentration of about 10% (w/w). The composition is applied directly to and around the site of excision of the melanoma covering an area of approximately 100 cm^2. The application is repeated once an hour for an 8 hour period. The area is then exposed to light in the wavelength range of about 500 to about 700 nm for approximately 10 hours.
The melanoma is surgically removed and the patient is treated for pre-melanoma using photodynamic therapy. The area around the point of excision of the melanoma is contacted with an ointment which includes amino levulinic acid methyl ester at about 5% (w/w) and a penetrating agent, DMSO, at a concentration of about 15% (w/w). The ointment is applied directly to and around the site of excision of the melanoma. The site of application is covered with a semi-permeable membrane for 24 hours after which the application is repeated and again covered for a 24 hour period. The area is then exposed to light in the wavelength range of about 610 nm to about 670 nm for approximately 2 hours once a day for four straight days. […]

COC(=O)CCC(=O)CN [aminolevulinic acid methyl ester]
cancer status of patient after treatment (Example 3: thigh, superficial spreading melanoma removed, about 10% (w/w) with DMSO about 10% (w/w), topical, once an hour for 8 hours, light about 500 to about 700 nm approx. 10 hours, at one year after treatment): no sign of cancer | cancer status of patient after surgery and treatment (Example 6: foot, acral lentiginous melanoma removed, ointment about 5% (w/w) with DMSO about 15% (w/w), two 24 hour applications, light about 610 nm to about 670 nm approx. 2 hours once a day for four days, two years after surgery): no sign of the cancer
